Entries after “also recorded” stand apart in the source; their conditions may differ.
How the values were obtained:
[1] = system: Heliothis zea; experiment: Sterol utilization and metabolism by Heliothis zea reared on artificial diet with sterol supplement; details: for Instar reached by day 20 / Growth response: sterol 200 ppm in diet; for Growth response: 20-day larvae, relative to growth on cholesterol normalized to 100%; for Utilization by H. zea / support of larval growth and development (words): test sterol as sole added dietary sterol
Method: Heliothis zea (corn earworm) was reared on an artificial diet treated with different sterol supplements to study the relation between sterol structure and utilization in insects. H. zea eggs were used to establish a disease-free stock colony.
The stock insects were reared using sterile procedures on a pinto bean-based diet. Moths were fed 10% sucrose. Cultures were maintained at 27±1° C., at 40±10% relative humidity on a 14:10 light-dark photoperiod and an artificial diet was used to rear the insects on different sterol supplements. The experimental diet contained agar, which is known to contain trace contamination of cholesterol, otherwise the experimental diet was sterol-free.
Sterols were solubilized in acetone. Aliquots of the solutions were added to the sterol-free diet in a mortar, the material mixed thoroughly with the diet, and the organic solvent allowed to evaporate. Sterols were supplied to the medium at 200 ppm (equivalent to 1 mg of sterol per experimental vessel containing one insect).
By day 20, H. zea larva are in the final stage of larval development (sixth instar), after which the insects may pupate. A single neonate larva was placed in an experimental culture vial and allowed to grow for 20 days. The fresh weight, length and instar stage of 20-day larva were recorded.
In some treatments, the larvae were allowed to grow for another 4 days to determine whether they could pupate properly and develop into moth forms.
These fatty alcohols may comigrate with sterols during some forms of chromatography and interfere with sterol quantitation, particularly of cholesterol. Therefore, in order to confirm the identity and amount of cholesterol in the insect an aliquot of the NSF was injected into a HPLC column and the fraction corresponding to cholesterol was examined by GC-MS.

[2] = system: (S)-adenosyl-L-methionine: Δ^24-sterol methyl transferase (SMT); experiment: Sterol specificity (substrate methylation) of SMT enzyme from 4-day corn seedlings; format: biochemical, Zea mays (corn); details: for % Activity, relative to cycloartenol methylation: soluble SMT; for Enzyme Activity: soluble SMT from corn seedlings, BG = background
Method: The sterol specificity of the microsome-bound and soluble SMT enzyme from 4-day corn seedlings was determined in order to elucidate the enzymatic basis for the plant sterols identified in Example 1.

[3] = system: (S)-adenosyl-L-methionine: Δ^24-sterol methyl transferase (SMT); experiment: Effect of substrate and transition state analog inhibitors on soluble SMT enzyme from 4-day seedlings; format: biochemical, Zea mays (corn)
[4] = Table 11, insect tissues, RP-HPLC and GC-MS
[5] = substrates marked (C1), first methyl transfer

24-Ethyl cholesta-5,24-dienol
Instar reached by day 20 ([1]; Table 11): 3 | Growth response ([1]; Table 11): 10%

24-Methyl cholesta-5,24-dienol
Sterol composition (as % total sterol): cholesterol [1, 4]: 35% | Sterol composition (as % total sterol): ts [1, 4]: 65% | Instar reached by day 20 ([1]; Table 11): 3 | Growth response ([1]; Table 11): 5%

24-methyl cholesta-5,23-dienol [24-Methylcholesta-5,23-dienol]
Sterol composition (as % total sterol): cholesterol [1, 4]: 20% | Sterol composition (as % total sterol): ts [1, 4]: 80% | Instar reached by day 20 ([1]; Table 11): 5 | Growth response ([1]; Table 11): 50% | Utilization by H. zea / support of larval growth and development (words) [1]: non-utilizable; also recorded: #deformities. Insects in the nonutilizable category generally weighed less than 100 mg per insect and their length ranged from 2 to 15 mm, with 6 to 12 insects alive at day 20

24-methyl cholesta-5,25(27)-dienol
Utilization by H. zea / support of larval growth and development (words) [1]: non-utilizable

CC(C)=CCC[C@@H](C)[C@H]1CC[C@H]2C3=C(CC[C@]12C)[C@@]1(C)CCCCC1CC3 (stereo partly shown) [3-Desoxyzymosterol]
% Activity, relative to cycloartenol methylation ([2]; (C1), first methyl transfer): 0 (C1) %

C=C(CC[C@@H](C)[C@H]1CC[C@H]2C3=C(CC[C@]12C)[C@@]1(C)CC[C@H](O)[C@@H](C)C1CC3)C(C)C (stereo partly drawn) [4α-Methylergosta-8,24(28)-dienol]
Enzyme Activity ([2]; substrates marked (C2), second methyl transfer): 1,500 dpm/min | % Activity, relative to cycloartenol methylation ([2]; (C2), second methyl transfer): 4 (C2) %

CC(C)=CCC[C@@H](C)[C@H]1CC[C@H]2C3=C(CC[C@]12C)[C@@]1(C)CC[C@H](O)[C@@H](C)[C@@H]1CC3 [4α-Methylzymosterol]
Enzyme Activity [2, 5]: 10,504 dpm/min | % Activity, relative to cycloartenol methylation ([2]; (C1), first methyl transfer): 28 (C1) %

CC(C)=CCCC(C)C1CC[C@@]2(C)C3=C(CCC12C)C1(C)CCC(O)CC1CC3 (stereo partly drawn) [14α-Methylzymosterol]
Enzyme Activity [2, 5]: 3,376 dpm/min | % Activity, relative to cycloartenol methylation ([2]; (C1), first methyl transfer): 9 (C1) %

C=C(CC[C@@H](C)[C@H]1CC[C@H]2[C@@H]3CC=C4CC(O)CC[C@]4(C)[C@H]3CC[C@]12C)C(C)C (stereo partly shown) [24(28)-Methylenecholesterol, 24(28)-methylenecholesterol]
Instar reached by day 20 ([1]; Table 11): 6 | Growth response ([1]; Table 11): 100% | Sterol composition (as % total sterol): cholesterol ([1]; in vivo): 84% | Sterol composition (as % total sterol): ts ([1]; in vivo): 16% | Total sterol µg/insect ([1]; in vivo): 59 µg/insect | Utilization by H. zea / support of larval growth and development (words) [1]: supported larval growth to late-sixth instar

CC(CCC1NC1(C)C)[C@H]1CC[C@@]2(C)C3=C(CC[C@]12C)[C@]1(C)CC[C@H](O)C(C)(C)[C@@H]1CC3 (stereo partly drawn) [24-(R,S)-25-Epiminolanosterol, 24-(R,S)-25-epiminolanosterol]
Type of inhibition / kinetic pattern ([3]; soluble corn SMT): non-competitive type kinetic pattern

CC(C)=CCC[C@@H](C)[C@H]1CC[C@@]2(C)[C@@H]3CC[C@H]4C[C@@H](O)CC[C@@]45C[C@@]35CC[C@]12C [24-Dehydropollinstanol]
Enzyme Activity [2, 5]: 8,253 dpm/min | % Activity, relative to cycloartenol methylation ([2]; (C1), first methyl transfer): 22 (C1) % | Instar reached by day 20 ([1]; Table 11): 3 | Growth response ([1]; Table 11): 5% | Sterol composition (as % total sterol): cholesterol ([1]; in vivo): 14% | Sterol composition (as % total sterol): ts ([1]; in vivo): 86% | Total sterol µg/insect ([1]; in vivo): 0.6 µg/insect

CC(C)CCC[C@@H](C)[C@H]1CC[C@@]2(C)C3=C(CC[C@]12C)[C@@]1(C)CC[C@H](O)C(C)(C)[C@@H]1CC3 [24-Dihydrolanosterol]
Instar reached by day 20 ([1]; Table 11): 3 | Growth response ([1]; Table 11): 5%

CCC(=CC[C@@H](C)[C@H]1CC[C@H]2[C@@H]3CC=C4CC(O)CC[C@]4(C)[C@H]3CC[C@]12C)C(C)C (stereo partly shown) [24-Ethyl cholesta-5,23-dienol]
Sterol composition (as % total sterol): cholesterol [1, 4]: 14% | Sterol composition (as % total sterol): ts [1, 4]: 86% | Instar reached by day 20 ([1]; Table 11): 3 | Growth response ([1]; Table 11): 20%

CC(C)=CCC[C@@H](C)[C@H]1CC[C@@]2(C)[C@@H]3CC[C@H]4[C@H](C)[C@@H](O)CC[C@@]45C[C@@]35CC[C@]12C [31-Norcycloartenol]
Enzyme Activity [2, 5]: 18,757 dpm/min | % Activity, relative to cycloartenol methylation ([2]; (C1), first methyl transfer): 50 (C1) %

CC(C)C(C)CCC(C)C1CCC2C3CC=C4CC(O)CCC4(C)C3CCC12C (stereo not shown) [Campesterol, campesterol]
Effect on the first methyl transfer ([3]; soluble corn SMT): failed to inhibit either the first or second methylation reaction | Effect on the second methyl transfer ([3]; soluble corn SMT): failed to inhibit either the first or second methylation reaction

CC(C)CCC[C@@H](C)[C@H]1CC[C@H]2C3=C(CC[C@]12C)[C@@]1(C)CCC(O)CC1CC3 (stereo partly shown) [Cholest-8-enol]
% Activity, relative to cycloartenol methylation ([2]; (C1), first methyl transfer): 0 (C1) % | Instar reached by day 20 ([1]; Table 11): 3 | Growth response ([1]; Table 11): 5% | Utilization by H. zea / support of larval growth and development (words) [1]: inability of cholest-8-enol to support growth

C=C(C)C(CC)CCC(C)C1CCC2C3CC=C4CC(O)CCC4(C)C3CCC12C (stereo not shown) [Clereosterol]
Instar reached by day 20 ([1]; Table 11): 3 | Growth response ([1]; Table 11): 20% | Sterol composition (as % total sterol): cholesterol ([1]; in vivo): 20% | Sterol composition (as % total sterol): ts ([1]; in vivo): 80% | Total sterol µg/insect ([1]; in vivo): 3 µg/insect

CC[C@@H](CC[C@@H](C)[C@H]1CC[C@H]2[C@@H]3CC=C4C[C@@H](O)CC[C@]4(C)[C@H]3CC[C@]12C)C(C)C [Clionasterol]
Instar reached by day 20 ([1]; Table 11): 6 | Growth response ([1]; Table 11): 100% | Utilization by H. zea / support of larval growth and development (words) [1]: supported larval growth to late-sixth instar

C=C(CC[C@@H](C)[C@H]1CC[C@@]2(C)[C@@H]3CC[C@H]4[C@H](C)[C@@H](O)CC[C@@]45C[C@@]35CC[C@]12C)C(C)C [Cycloeucalenol]
% Activity, relative to cycloartenol methylation ([2]; (C2), second methyl transfer): 0 (C2) %

C=C(CC[C@@H](C)[C@H]1CC[C@H]2[C@@H]3CC=C4C[C@@H](O)CC[C@]4(C)[C@H]3CC[C@]12C)C(C)C [Ergosta-5,24(28)-dienol]
% Activity, relative to cycloartenol methylation ([2]; (C2), second methyl transfer): 0 (C2) %

C=C(CC[C@@H](C)[C@H]1CC[C@H]2C3=CCC4CC(O)CC[C@]4(C)[C@H]3CC[C@]12C)C(C)C (stereo partly shown) [Ergosta-7,24(28)-dienol]
% Activity, relative to cycloartenol methylation ([2]; (C2), second methyl transfer): 0 (C2) %

C=C(CC[C@@H](C)[C@H]1CC[C@H]2C3=C(CC[C@]12C)[C@@]1(C)CC[C@H](O)CC1CC3)C(C)C (stereo partly shown) [Ergosta-8,24(28)-dienol]
% Activity, relative to cycloartenol methylation ([2]; (C2), second methyl transfer): 0 (C2) %

C/C=C(\CC[C@@H](C)[C@H]1CC[C@H]2[C@@H]3CC=C4C[C@@H](O)CC[C@]4(C)[C@H]3CC[C@]12C)C(C)C [Fucosterol]
Sterol composition (as % total sterol): ts [1, 4]: 10% | Instar reached by day 20 ([1]; Table 11): 6 | Growth response ([1]; Table 11): 100% | Utilization by H. zea / support of larval growth and development (words) [1]: supported larval growth to late-sixth instar

C/C=C(/CCC(C)C1CCC2C3CC=C4CC(O)CCC4(C)C3CCC12C)C(C)C (stereo not shown) [Isofucosterol]
Sterol composition (as % total sterol): ts [1, 4]: 8% | Instar reached by day 20 ([1]; Table 11): 6 | Growth response ([1]; Table 11): 100% | Utilization by H. zea / support of larval growth and development (words) [1]: supported larval growth to late-sixth instar

CC(C)=CCC[C@@H](C)[C@H]1CC[C@@]2(C)C3=C(CC[C@]12C)[C@@]1(C)CC[C@H](O)C(C)(C)[C@@H]1CC3 [Lanosterol]
Enzyme Activity [2, 5]: 24,384 dpm/min | % Activity, relative to cycloartenol methylation ([2]; (C1), first methyl transfer): 65 (C1) % | Instar reached by day 20 ([1]; Table 11): 3 | Growth response ([1]; Table 11): 5% | Utilization by H. zea / support of larval growth and development (words) [1]: could not be met satisfactorily

C=C(CC[C@@H](C)[C@H]1CC[C@@]2(C)C3=C(CC[C@]12C)[C@@]1(C)CC[C@H](O)[C@@H](C)[C@@H]1CC3)C(C)C [Obtusifoliol]
% Activity, relative to cycloartenol methylation ([2]; (C2), second methyl transfer): 0 (C2) %

CC(C)=CCC[C@@H](C)[C@H]1CC[C@@]2(C)[C@@H]3CC[C@H]4C(C)(C)[C@@H](O)CC[C@]4(C)C3=CC[C@]12C [Parkeol]
Enzyme Activity [2, 5]: 6,002 dpm/min | % Activity, relative to cycloartenol methylation ([2]; (C1), first methyl transfer): 16 (C1) %

CCC(/C=C/C(C)C1CCC2C3CC=C4CC(O)CCC4(C)C3CCC12C)C(C)C (stereo not shown) [Stigmasterol, stigmasterol]
Sterol composition (as % total sterol): ts [1, 4]: 15% | Instar reached by day 20 ([1]; Table 11): 6 | Growth response ([1]; Table 11): 100% | Utilization by H. zea / support of larval growth and development (words) [1]: supported larval growth to late-sixth instar

CC=C(CCC(C)C1CCC2C3=CCC4C(C)C(O)CCC4(C)C3CCC21C)C(C)C (stereo not shown) [Z-24(28)-Ethylidene lophenol]
Ki ([3]; soluble SMT, 4-day seedlings, NA = no inhibition, read-out: Ki relative to the second methyl transfer): 75 µM | Effect on the first methyl transfer ([3]; soluble corn SMT): not affecting the first methyl transfer

(S)-adenosyl-L-methionine [coenzyme]
Km ([2]; same for the first and second methylation reactions, read-out: Km for the coenzyme): 5 µM
